The source made the active and inactive calls.
Assays:
[1] = biological target: Heat shock protein HSP 90-alpha (Homo sapiens, UniProt P07900); type: functional, organism-based
[2] = biological target: Eukaryotic translation initiation factor 4E (Mus musculus, UniProt P63073); experiment: blockers of eIF4G binding by eIF4E – biochemical, TR-FRET, dose response (AID 855); type: functional;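 also: potency for disrupting eIF4E binding to eIF4GI seen as loss of FRET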
[3] = CCR5-tropic HIV-1 fusion blockers – cell-based, CCR5-tropic Env, dose response (AID 2279); type: functional
[4] = biological target: T1, Calpain-2 catalytic subunit (Sus scrofa, UniProt P43367); experiment: m-calpain protease blockers, concentration series – biochemical, fluorogenic peptide substrate, dose response (AID 1420); type: functional
T1 sequence (P43367 whole entry): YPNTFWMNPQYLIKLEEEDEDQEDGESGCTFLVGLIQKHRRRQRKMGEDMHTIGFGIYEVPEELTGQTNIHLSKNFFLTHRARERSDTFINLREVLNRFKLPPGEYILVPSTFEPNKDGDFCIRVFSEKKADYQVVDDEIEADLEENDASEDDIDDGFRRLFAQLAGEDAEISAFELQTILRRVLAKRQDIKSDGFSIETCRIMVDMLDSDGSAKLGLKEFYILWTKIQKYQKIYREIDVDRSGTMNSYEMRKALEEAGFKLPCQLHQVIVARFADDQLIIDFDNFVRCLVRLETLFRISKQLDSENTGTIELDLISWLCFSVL

[5] = viability of HCT116 lacking mutant beta-catenin – cell-based, human colon tumor, dose response (AID 1045); type: functional;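 also: HCT116 colon tumor cells with beta catenin knocked out; cells exposed to compound for 60 hours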
[6] = viability of PTEN-deleted HCT116 cells – cell-based, HCT116 PTEN knockout, dose response (AID 1047); type: functional;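 also: HCT116 colon tumor cells with PTEN knocked out; cells exposed to compound for 60 hours before readout; potency for loss of cell viability measured by luminescence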
[7] = biological target: Protein-tyrosine kinase 2-beta (Homo sapiens, UniProt Q14289);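 also: potency of inhibitors of PYK2 kinase phosphorylation of poly-GT substrate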
[8] = Luminescence Cell-Based Dose Response to Identify Activators of Luciferase Translation or Activity in H4-C Neuroglioblastoma Cells. [Related pubchem assays: 1829 (Project Summary), 1814 (Primary HTS)]; type: functional
H4 = experiment: Luminescence Cell-Based Dose Response HTS to Identify Activators of 5'UTR Stem-Loop Driven Prion Protein mRNA Translation in H4 Neuroglioblastoma Cells. [Related pubchem assays: 1829 (Project Summary), 1814 (Primary HTS)]; type: functional; settings: Homo sapiens
[9] = Luminescence Cell-Based Dose Response HTS to Identify Activators of Luciferase Translation or Activity in H4 […] Cells. [Related pubchem assays: 1829 (Project Summary), 1814 (Primary HTS)]; type: functional
[10] = Luminescence Cell-Based Dose Confirmation to Identify Activators of 5'UTR Stem-Loop Driven Alpha-Synuclein mRNA Translation in H4 Neuroglioblastoma Cells. [Related pubchem assays: 1829 (Project Summary), 1814 (Primary HTS)]; type: functional
[11] = Luminescence Cell-Based Dose Response to Identify Activators of 5'UTR Stem-Loop Driven Prion Protein mRNA Translation in H4-C Neuroglioblastoma Cells. [Related pubchem assays: 1829 (Project Summary), 1814 (Primary HTS)]; type: functional
Estrogen receptor = biological target: T2, Estrogen receptor (Homo sapiens, UniProt P03372);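 also: potency for inhibiting coactivator peptide recruitment to the receptor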
T2 sequence (P03372 whole entry): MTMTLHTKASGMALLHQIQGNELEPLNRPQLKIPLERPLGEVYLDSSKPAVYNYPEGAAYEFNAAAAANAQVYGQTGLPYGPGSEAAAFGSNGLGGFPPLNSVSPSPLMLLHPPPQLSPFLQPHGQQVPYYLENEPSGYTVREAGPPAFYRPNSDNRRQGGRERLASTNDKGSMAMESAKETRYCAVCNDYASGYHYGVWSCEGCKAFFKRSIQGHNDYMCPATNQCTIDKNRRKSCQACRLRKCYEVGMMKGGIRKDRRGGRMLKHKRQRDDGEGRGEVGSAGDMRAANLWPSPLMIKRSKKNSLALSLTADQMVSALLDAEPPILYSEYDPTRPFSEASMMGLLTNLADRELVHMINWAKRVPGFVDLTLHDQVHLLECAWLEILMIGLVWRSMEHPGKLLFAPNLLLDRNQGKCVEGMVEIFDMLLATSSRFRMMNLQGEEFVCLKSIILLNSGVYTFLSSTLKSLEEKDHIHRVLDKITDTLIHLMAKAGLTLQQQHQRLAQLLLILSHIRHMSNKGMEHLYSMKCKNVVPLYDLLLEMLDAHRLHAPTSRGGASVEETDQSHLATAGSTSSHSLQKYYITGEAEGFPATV

[12] = biological target: T3, Endoribonuclease toxin MazF (Escherichia coli K-12, UniProt P0AE70); experiment: substrate-only fluorescence increase artefacts – biochemical, single-stranded RNase substrate, counter-screen for MazEF activator project, dose response (AID 588502); type: functional
T3 sequence (P0AE70 whole entry): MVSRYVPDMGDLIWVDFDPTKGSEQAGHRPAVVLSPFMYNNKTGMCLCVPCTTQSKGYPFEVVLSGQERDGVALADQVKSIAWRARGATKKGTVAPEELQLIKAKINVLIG

[13] = viability loss of HPDE-C7K cells – cell-based, fluorescence, HTS, primary screen (AID 431); type: functional; settings: Homo sapiens
[14] = HPDE-C7 pancreatic duct cell viability loss – fluorescence, HTS (AID 430); type: functional, cell-based; settings: Homo sapiens
[15] = biological target: T3, Endoribonuclease toxin MazF; experiment: activation of MazEF endoribonuclease cleavage – biochemical, fluorescence, single-stranded RNA substrate, uHTS hits, dose response (AID 588481); type: functional
[16] = biological target: T4, Low molecular weight phosphotyrosine protein phosphatase (Homo sapiens, UniProt P24666); type: functional; settings: read-out: IC50_Mean
T4 sequence (P24666 whole entry): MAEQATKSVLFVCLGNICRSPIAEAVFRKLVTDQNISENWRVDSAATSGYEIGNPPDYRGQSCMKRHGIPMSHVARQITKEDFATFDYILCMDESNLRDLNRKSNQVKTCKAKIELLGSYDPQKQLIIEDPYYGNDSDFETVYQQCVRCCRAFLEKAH

[17] = biological target: T5, Carboxy-terminal domain RNA polymerase II polypeptide A small phosphatase 1 (Homo sapiens, UniProt Q9GZU7); experiment: CTDSP1 inhibitors, concentration-response, biochemical, absorbance readout, ultra-high-throughput screen actives (AID 540297); type: functional
T5 sequence (Q9GZU7 whole entry): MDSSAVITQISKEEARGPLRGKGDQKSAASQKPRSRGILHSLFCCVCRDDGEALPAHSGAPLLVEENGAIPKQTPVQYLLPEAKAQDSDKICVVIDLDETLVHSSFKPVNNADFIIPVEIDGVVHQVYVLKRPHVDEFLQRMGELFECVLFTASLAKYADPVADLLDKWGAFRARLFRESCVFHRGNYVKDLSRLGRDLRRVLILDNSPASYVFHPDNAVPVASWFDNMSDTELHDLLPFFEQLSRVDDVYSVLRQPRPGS

[18] = biological target: T4, Low molecular weight phosphotyrosine protein phosphatase; type: functional; settings: read-out: IC50_Mean; remark: listed apart in the source
[19] = biological target: DNA dC->dU-editing enzyme APOBEC-3G (Homo sapiens, UniProt Q9HC16); experiment: Dose Response confirmation of small molecule APOBEC3G DNA Deaminase Inhibitors via a fluorescence-based single-stranded DNA deaminase assay. [Related pubchem assays (depositor defined):AID493012, AID493028]; type: functional
Protein Rev = biological target: T6, Protein Rev (Human immunodeficiency virus type 1 group M subtype B (isolate WMJ22)(HIV-1), UniProt P05866); experiment: inhibitors of Rev protein–RRE RNA complex – biochemical, protein-RNA interaction, dose response (AID 842); design: species or system Human immunodeficiency virus 1
T6 sequence (P05866 whole entry): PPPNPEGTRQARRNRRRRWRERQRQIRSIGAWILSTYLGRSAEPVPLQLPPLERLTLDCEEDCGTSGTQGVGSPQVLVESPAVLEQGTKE

[20] = Trypanosoma cruzi growth suppression in host cells – NIH3T3 host cells, beta-gal luminescence, confirmation (AID 2044); type: functional, cell-based;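 also: intracellular parasites grown in NIH/3T3 mouse fibroblasts as host cells; luminescent beta-galactosidase reporter signal from transgenic T. cruzi replicating inside host cells; inhibitors lower the luminescence signal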
[21] = biological target: T7, High affinity choline transporter 1 (Homo sapiens, UniProt Q9GZV3); experiment: human choline transporter blockers, potency – cell-based, 5-point CRC, membrane potential dye, dose response (AID 504840); type: functional
T7 sequence (Q9GZV3 whole entry): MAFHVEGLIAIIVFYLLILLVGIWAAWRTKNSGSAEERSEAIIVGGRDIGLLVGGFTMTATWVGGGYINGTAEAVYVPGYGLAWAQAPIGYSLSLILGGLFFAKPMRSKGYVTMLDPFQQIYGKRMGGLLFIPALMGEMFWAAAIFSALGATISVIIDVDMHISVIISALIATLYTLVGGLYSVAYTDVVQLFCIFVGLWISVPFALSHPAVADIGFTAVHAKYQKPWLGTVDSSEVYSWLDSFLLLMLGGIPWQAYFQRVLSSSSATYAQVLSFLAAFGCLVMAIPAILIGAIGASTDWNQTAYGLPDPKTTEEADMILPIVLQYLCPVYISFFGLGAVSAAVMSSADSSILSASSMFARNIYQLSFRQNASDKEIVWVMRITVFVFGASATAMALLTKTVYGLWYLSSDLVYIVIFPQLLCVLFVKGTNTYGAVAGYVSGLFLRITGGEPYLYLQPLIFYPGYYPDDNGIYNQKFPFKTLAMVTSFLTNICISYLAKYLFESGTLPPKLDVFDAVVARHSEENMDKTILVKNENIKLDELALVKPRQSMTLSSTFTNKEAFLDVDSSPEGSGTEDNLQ

Vero = experiment: mammalian cell viability reduction – secondary assay, cytotoxicity control for West Nile virus antiviral project, dose response (AID 1650); type: functional; settings: Chlorocebus sabaeus

Chain of Protein-tyrosine kinase 2-beta (Q14289 whole entry): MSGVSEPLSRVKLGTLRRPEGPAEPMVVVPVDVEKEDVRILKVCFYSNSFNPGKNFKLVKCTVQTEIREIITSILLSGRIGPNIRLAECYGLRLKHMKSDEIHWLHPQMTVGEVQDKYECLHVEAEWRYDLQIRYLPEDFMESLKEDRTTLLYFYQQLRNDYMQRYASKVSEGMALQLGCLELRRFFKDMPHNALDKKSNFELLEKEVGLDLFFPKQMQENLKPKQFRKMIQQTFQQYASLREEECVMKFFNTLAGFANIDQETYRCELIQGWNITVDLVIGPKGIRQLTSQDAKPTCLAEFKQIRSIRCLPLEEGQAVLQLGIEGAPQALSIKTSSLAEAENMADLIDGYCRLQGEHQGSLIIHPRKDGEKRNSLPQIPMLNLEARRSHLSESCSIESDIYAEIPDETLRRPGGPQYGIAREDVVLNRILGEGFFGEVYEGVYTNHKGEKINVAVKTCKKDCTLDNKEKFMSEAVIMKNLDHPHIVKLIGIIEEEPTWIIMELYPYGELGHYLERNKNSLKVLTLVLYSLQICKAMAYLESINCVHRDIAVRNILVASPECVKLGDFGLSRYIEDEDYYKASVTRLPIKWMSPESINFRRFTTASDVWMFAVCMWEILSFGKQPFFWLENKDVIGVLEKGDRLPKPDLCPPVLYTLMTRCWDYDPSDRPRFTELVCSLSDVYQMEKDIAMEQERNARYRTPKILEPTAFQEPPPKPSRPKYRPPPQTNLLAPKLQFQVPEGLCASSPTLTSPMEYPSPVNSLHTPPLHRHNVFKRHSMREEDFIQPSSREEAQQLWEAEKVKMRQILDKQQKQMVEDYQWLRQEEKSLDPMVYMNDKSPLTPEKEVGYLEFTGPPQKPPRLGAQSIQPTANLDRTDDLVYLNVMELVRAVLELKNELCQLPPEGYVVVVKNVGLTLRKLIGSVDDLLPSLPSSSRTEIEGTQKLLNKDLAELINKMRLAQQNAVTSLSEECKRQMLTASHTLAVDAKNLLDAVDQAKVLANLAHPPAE
Chain of DNA dC->dU-editing enzyme APOBEC-3G (Q9HC16 whole entry): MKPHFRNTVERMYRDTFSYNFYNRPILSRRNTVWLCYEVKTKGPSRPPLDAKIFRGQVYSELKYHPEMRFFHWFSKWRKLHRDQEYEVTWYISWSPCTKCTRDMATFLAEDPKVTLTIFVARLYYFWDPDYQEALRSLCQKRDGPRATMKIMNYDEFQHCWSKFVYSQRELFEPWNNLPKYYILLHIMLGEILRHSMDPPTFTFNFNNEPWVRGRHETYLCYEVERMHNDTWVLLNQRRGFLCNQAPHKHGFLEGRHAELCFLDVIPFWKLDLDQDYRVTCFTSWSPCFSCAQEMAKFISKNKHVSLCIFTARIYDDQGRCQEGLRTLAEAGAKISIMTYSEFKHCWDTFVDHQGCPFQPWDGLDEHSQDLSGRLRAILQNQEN
Chain of Eukaryotic translation initiation factor 4E (P63073 whole entry, the tested form may be a part): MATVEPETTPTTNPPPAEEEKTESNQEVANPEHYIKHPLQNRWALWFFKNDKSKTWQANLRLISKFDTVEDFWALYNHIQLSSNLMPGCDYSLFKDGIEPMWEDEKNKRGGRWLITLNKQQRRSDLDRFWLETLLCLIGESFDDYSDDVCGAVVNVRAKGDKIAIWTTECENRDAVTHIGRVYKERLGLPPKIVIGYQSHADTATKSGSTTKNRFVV

For `CCCCCCCCCCCCCCCC[n+]1ccn(CC(C)=O)c1`, the AC50 [1] was 2.86 µM (active), the IC50 [2] was 10.1 µM (active) and the IC50 [3] was 4.25 µM (active). For the same compound, the IC50 [4] was 21.1 µM (not active).

For `N#Cc1cccc(NC(=O)CSc2ccc3c4c(cccc24)C(=O)c2ccccc2-3)c1`, the EC50 [5] was 19.6 µM (active), the EC50 [6] was 15.3 µM (active) and the IC50 [7] was 4.87 µM (active).

With `Cc1ccc(Sc2c(CO)c(-c3ccccc3)nn2C)cc1` the EC50 [8] was > 3.8 µM (not active), the EC50 (H4) was > 120 µM (not active) and the EC50 [9] was > 120 µM (not active). The EC50 [10] was 0.658 µM (inconclusive) and the EC50 [11] was 1.37 µM (inconclusive).

For `O=C1CC(/C=C/c2ccco2)=Nc2ccccc2N1`, the IC50 (Estrogen receptor) was > 50 µM (not active).

For `CCN(CC)c1nc2ccccc2nc1C(C#N)C(=O)NCCc1ccccc1` (stereo not drawn), the EC50 [12] was > 99 µM (inactive), the EC50 [13] was > 20 µM (not active) and the EC50 [14] was > 20 µM (not active). The EC50 [15] was > 99 µM (inactive).

In the case of `COC(=O)c1ccc(CSc2nc(C)nc3sc(C)c(C)c23)o1`, the IC50 (Estrogen receptor) is reported as 48.9 µM (not active).

In the case of `Cc1ccc(C(=O)NNC(=O)CSc2n[nH]c3c4cc(F)ccc4nc-3n2)cc1`, the IC50 [16] is reported as 17.5 µM (active), the IC50 [17] is reported as 5.22 µM (active) and the IC50 [18] is reported as 14.6 µM (active). The IC50 [19] was 28.6 µM (active), the IC50 (Protein Rev) was > 79.4 µM (not active) and the IC50 [7] was 5.25 µM (active).

For `CCCCN(CCCC)S(=O)(=O)c1ccc(NC(=O)c2ccc([N+](=O)[O-])cc2Cl)cc1`, the EC50 [20] was 0.798 µM (active), the IC50 [21] was 12.6 µM (active) and the CC50 (Vero) was 10.1 µM (active). For the same compound, the IC50 [4] was 1.42 µM (not active).

— ChEMBL document CHEMBL1201862, “PubChem BioAssay data set” (2004)
